Measured values from patent publication US6489469B1, “Method for storing or transporting erythritol solution” (Nikken Chemicals Co., Ltd., priority 1999, dated 2002).

Assays:
[1] = test system: Aspergillus flavus IFO 6343; test: Viable Count of Aspergillus flavus IFO 6343 in Erythritol Solution; type: cell-based; conditions: for The Number of Viable Cell: 50° C.
Method: (§1) Erythritol solutions of respective concentrations in the range of from 30 to 60% were prepared. To these were inoculated Staphylococcus aureus IFO 13276, Bacillus subtilis IFO 3134, and Escherichia coli IFO 3972 as bacteria, Candida albicans IFO 1549 and Saccharomyces cerevisiae ATCC 9763 as yeasts, Aspergillus niger IFO 6342, Aspergillus flavus IFO 6343, and Penicillium funiculosum IFO 6345 as fungi, respectively, in a population (concentration) of 10,000 cells/mL or more. After the inoculation, the solutions were stored at 30, 37, 45, 50, or 60° C., respectively, for 56 days and the number of viable cell was determined daily. The determination of the number of viable cell was performed by a method of coating 0.1 mL of appropriately diluted sample cultivation on an agar plate and cultivating and counting the number of viable cell (the number of colony) that grew after the cultivation.

[2] = test system: Penicillium funiculosum IFO 6345; test: Viable Count of Penicillium funiculosum IFO 6345 in Erythritol Solution; type: cell-based
Method: as §1

OC[C@@H](O)[C@@H](O)CO [Erythritol Solution, erythritol]
The Number of Viable Cell ([1]; 30% w/w, Day 3): 0 cells/mL
The Number of Viable Cell ([1]; 30% w/w, Day 7): 0 cells/mL
The Number of Viable Cell ([1]; 30% w/w, Day 14): 0 cells/mL
The Number of Viable Cell ([1]; 30% w/w, Day 28): 0 cells/mL
The Number of Viable Cell ([1]; 30% w/w, Day 56): 0 cells/mL
The Number of Viable Cell ([1]; 40% w/w, Day 0): ≥ 10000 cells/mL
The Number of Viable Cell ([1]; 40% w/w, Day 3): 0 cells/mL
The Number of Viable Cell ([1]; 40% w/w, Day 7): 0 cells/mL
The Number of Viable Cell ([1]; 40% w/w, Day 14): 0 cells/mL
The Number of Viable Cell ([1]; 40% w/w, Day 28): 0 cells/mL
The Number of Viable Cell ([1]; 40% w/w, Day 56): 0 cells/mL
The Number of Viable Cell ([1]; 50% w/w, Day 0): ≥ 10000 cells/mL
The Number of Viable Cell ([1]; 50% w/w, Day 3): 0 cells/mL
The Number of Viable Cell ([1]; 50% w/w, Day 7): 0 cells/mL
The Number of Viable Cell ([1]; 50% w/w, Day 14): 0 cells/mL
The Number of Viable Cell ([1]; 50% w/w, Day 28): 0 cells/mL
The Number of Viable Cell ([1]; 50% w/w, Day 56): 0 cells/mL
growth of the microbes ([1]; temperature of 50° C. or more): prevented from growing
time after which microbes died ([1]; temperature of 50° C. or more): 3 days
The Number of Viable Cell ([2]; 37° C., 30% w/w, Day 0): ≥ 10000 cells/mL
The Number of Viable Cell ([2]; 37° C., 30% w/w, Day 3): ≥ 10000 cells/mL
The Number of Viable Cell ([2]; 37° C., 30% w/w, Day 7): ≥ 10000 cells/mL
The Number of Viable Cell ([2]; 37° C., 30% w/w, Day 14): ≥ 10000 cells/mL
The Number of Viable Cell ([2]; 37° C., 30% w/w, Day 28): ≥ 10000 cells/mL
The Number of Viable Cell ([2]; 37° C., 30% w/w, Day 56): ≥ 10000 cells/mL
The Number of Viable Cell ([2]; 37° C., 40% w/w, Day 0): ≥ 10000 cells/mL
The Number of Viable Cell ([2]; 37° C., 40% w/w, Day 3): ≥ 10000 cells/mL
The Number of Viable Cell ([2]; 37° C., 40% w/w, Day 7): ≥ 10000 cells/mL
The Number of Viable Cell ([2]; 37° C., 40% w/w, Day 14): ≥ 10000 cells/mL
The Number of Viable Cell ([2]; 37° C., 40% w/w, Day 28): ≥ 10000 cells/mL
The Number of Viable Cell ([2]; 37° C., 40% w/w, Day 56): ≥ 10000 cells/mL
The Number of Viable Cell ([2]; 45° C., 30% w/w, Day 0): ≥ 10000 cells/mL
The Number of Viable Cell ([2]; 45° C., 30% w/w, Day 3): 370 cells/mL
The Number of Viable Cell ([2]; 45° C., 30% w/w, Day 7): 0 cells/mL
The Number of Viable Cell ([2]; 45° C., 30% w/w, Day 14): 0 cells/mL
The Number of Viable Cell ([2]; 45° C., 30% w/w, Day 28): 0 cells/mL
The Number of Viable Cell ([2]; 45° C., 30% w/w, Day 56): 0 cells/mL
The Number of Viable Cell ([2]; 45° C., 40% w/w, Day 0): ≥ 10000 cells/mL
The Number of Viable Cell ([2]; 45° C., 40% w/w, Day 3): 750 cells/mL
The Number of Viable Cell ([2]; 45° C., 40% w/w, Day 7): 0 cells/mL
The Number of Viable Cell ([2]; 45° C., 40% w/w, Day 14): 0 cells/mL
The Number of Viable Cell ([2]; 45° C., 40% w/w, Day 28): 0 cells/mL
The Number of Viable Cell ([2]; 45° C., 40% w/w, Day 56): 0 cells/mL
The Number of Viable Cell ([2]; 45° C., 50% w/w, Day 0): ≥ 10000 cells/mL
The Number of Viable Cell ([2]; 45° C., 50% w/w, Day 3): 1260 cells/mL
The Number of Viable Cell ([2]; 45° C., 50% w/w, Day 7): 0 cells/mL
The Number of Viable Cell ([2]; 45° C., 50% w/w, Day 14): 0 cells/mL
The Number of Viable Cell ([2]; 45° C., 50% w/w, Day 28): 0 cells/mL
The Number of Viable Cell ([2]; 45° C., 50% w/w, Day 56): 0 cells/mL
The Number of Viable Cell ([2]; 50° C., 30% w/w, Day 0): ≥ 10000 cells/mL
The Number of Viable Cell ([2]; 50° C., 30% w/w, Day 3): 0 cells/mL
The Number of Viable Cell ([2]; 50° C., 30% w/w, Day 7): 0 cells/mL
The Number of Viable Cell ([2]; 50° C., 30% w/w, Day 14): 0 cells/mL
The Number of Viable Cell ([2]; 50° C., 30% w/w, Day 28): 0 cells/mL
The Number of Viable Cell ([2]; 50° C., 30% w/w, Day 56): 0 cells/mL
The Number of Viable Cell ([2]; 50° C., 40% w/w, Day 0): ≥ 10000 cells/mL
The Number of Viable Cell ([2]; 50° C., 40% w/w, Day 3): 0 cells/mL
The Number of Viable Cell ([2]; 50° C., 40% w/w, Day 7): 0 cells/mL
The Number of Viable Cell ([2]; 50° C., 40% w/w, Day 14): 0 cells/mL
The Number of Viable Cell ([2]; 50° C., 40% w/w, Day 28): 0 cells/mL
The Number of Viable Cell ([2]; 50° C., 40% w/w, Day 56): 0 cells/mL
The Number of Viable Cell ([2]; 50° C., 50% w/w, Day 0): ≥ 10000 cells/mL
The Number of Viable Cell ([2]; 50° C., 50% w/w, Day 3): 0 cells/mL
The Number of Viable Cell ([2]; 50° C., 50% w/w, Day 7): 0 cells/mL
The Number of Viable Cell ([2]; 50° C., 50% w/w, Day 14): 0 cells/mL
The Number of Viable Cell ([2]; 50° C., 50% w/w, Day 28): 0 cells/mL
The Number of Viable Cell ([2]; 50° C., 50% w/w, Day 56): 0 cells/mL
growth of the microbes ([2]; temperature of 50° C. or more): prevented from growing
time after which microbes died ([2]; temperature of 50° C. or more): 3 days
